# Molecular target: T1, purified recombinant 11β-HSD1 (Homo sapiens, UniProt P28845)
# T1 construct: made in house; host or cells: E. coli
# Assay: Biological Test Example 1: inhibition of purified 11β-HSD1, Scintillation Proximity Assay
# Format: biochemical
# Conditions: purified recombinant 11β-HSD1 (expressed in E. coli), SPA; read-out: Biological Test Example 1 IC50 Range
# Method: The inhibition of purified 11β-HSD1 by compounds of Formula I is measured using a Scintillation Proximity Assay. […] The reaction is then incubated for 90 minutes, and stopped by adding 50 μl of SPA bead mix (18-β-glycyrrhetinic acid, 10 μM final, 5 mg/ml protein A coated YSi SPA beads, and 1 ug/ml α-cortisol antibody (East Coast Biologics)). The plate is shaken for 120 minutes, and the radioactivity corresponding to ^3H cortisol is measured on a Wallac Microbeta.
# T1 sequence (P28845 whole entry, species assumed): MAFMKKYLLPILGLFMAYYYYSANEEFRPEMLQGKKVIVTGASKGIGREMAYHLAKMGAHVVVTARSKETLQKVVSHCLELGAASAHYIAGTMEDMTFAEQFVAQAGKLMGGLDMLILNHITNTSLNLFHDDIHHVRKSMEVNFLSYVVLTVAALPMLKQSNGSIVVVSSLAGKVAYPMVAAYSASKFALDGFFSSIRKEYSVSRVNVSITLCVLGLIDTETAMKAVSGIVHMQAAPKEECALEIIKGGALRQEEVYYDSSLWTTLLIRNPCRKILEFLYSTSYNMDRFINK
row,SMILES,IC50 [µM]
1,"CC(C)(C)OC(=O)N1CCC2CN(C(=O)OC3C4CC5CC(C4)CC3C5)CC21 (racemic) [Example 11, (±)-1-tert-butyl 5-(2-adamantyl) hexahydropyrrolo[3,4-b]pyrrole-1,5-dicarboxylate]",< 0.1
2,"CC(C)(C)OC(=O)NCC1CN(C(=O)OC2C3CC4CC(C3)CC2C4)C1 (stereo not drawn) [Example 1, 2-adamantyl 3-((tert-butoxycarbonylamino)methyl)azetidine-1-carboxylate]",< 0.1
3,"CC(C)(C)OC(=O)N[C@@H]1CCCN(C(=O)OC2C3CC4CC(C3)CC2C4)C1 (stereo partly drawn) [Example 8, (3R)-(2-adamantyl) 3-(tert-butoxycarbonylamino)piperidine-1-carboxylate]",< 0.1
4,"CC(C)(C)OC(=O)N[C@@H]1CCN(C(=O)NC2C3CC4CC(C3)CC2C4)C1 (stereo partly drawn) [Example 46, (R)-tert-butyl 1-(2-adamantylcarbamoyl)pyrrolidin-3-ylcarbamate]",< 0.1
5,"CC(C)(C)OC(=O)N[C@H]1CCN(C(=O)NC2C3CC4CC(C3)CC2C4)C1 (stereo partly drawn) [Example 47, (S)-tert-butyl 1-(2-adamantylcarbamoyl)pyrrolidin-3-ylcarbamate]",0.1 to 1
6,"COC(=O)N[C@@H]1CCN(C(=O)NC2C3CC4CC(C3)CC2C4)C1 (stereo partly drawn) [Example 48, (R)-methyl 1-(2-adamantylcarbamoyl)pyrrolidin-3-ylcarbamate]",0.1 to 1
7,"CC(C)(C)OC(=O)NC1CN(C(=O)NC2C3CC4CC(C3)CC2C4)C1 (stereo not drawn) [Example 51, tert-butyl 1-(2-adamantylcarbamoyl)azetidin-3-ylcarbamate]",< 0.1
8,"CC(C)(C)OC(=O)NCC1CN(C(=O)NC2C3CC4CC(C3)CC2C4)C1 (stereo not drawn) [Example 52, tert-butyl (1-(2-adamantylcarbamoyl)azetidin-3-yl)methylcarbamate]",< 0.1
9,"CC(C)(C)OC(=O)NC1CCN(C(=O)NC2C3CC4CC(C3)CC2C4)CC1 (stereo not drawn) [Example 53, tert-butyl 1-(2-adamantylcarbamoyl)piperidin-4-ylcarbamate]",0.1 to 1
10,"CC(C)(C)OC(=O)NC[C@@H]1CCN(C(=O)NC2C3CC4CC(C3)CC2C4)C1 (stereo partly drawn) [Example 54, (S)-tert-butyl (1-(2-adamantylcarbamoyl)pyrrolidin-3-yl)methylcarbamate]",< 0.1
11,"CN(C(=O)OC(C)(C)C)C1CCN(C(=O)NC2C3CC4CC(C3)CC2C4)C1 (stereo not drawn) [Example 55, tert-butyl 1-(2-adamantylcarbamoyl)pyrrolidin-3-yl(methyl)carbamate]",< 0.1
12,"CC(C)(C)OC(=O)N[C@@H]1CCCN(C(=O)NC2C3CC4CC(C3)CC2C4)C1 (stereo partly drawn) [Example 56, (R)-tert-butyl 1-(2-adamantylcarbamoyl)piperidin-3-ylcarbamate]",< 0.1
13,"CC(C)(C)OC(=O)N[C@H]1CCCN(C(=O)NC2C3CC4CC(C3)CC2C4)C1 (stereo partly drawn) [Example 57, (S)-tert-butyl 1-(2-adamantylcarbamoyl)piperidin-3-ylcarbamate]",< 0.1

# Molecular target: T2, human 11β-HSD1 (Homo sapiens, UniProt P28845)
# T2 sequence (P28845 whole entry): as the sequence (P28845 whole entry, species assumed) above
# Assay: biochemical
# Conditions: Biological Test Example 2 IC50 Range, microsomes from CHO cells overexpressing human 11β-HSD1, SPA
row,SMILES,IC50 [µM]
1,"N#Cc1ccc(N[C@@H]2CCN(C(=O)OC3C4CC5CC3CC(C(=O)NC3CCCCC3)(C5)C4)C2)nc1 (single isomer, unassigned) [Example 117 Isomer 2]",< 0.1

# Molecular target: T2, human 11β-HSD1
# Assay: not given
# Conditions: at 100 nm
row,SMILES,Biological Test Example 2 Average % inhibition at 100 nm [%]
1,"N#Cc1ccc(N[C@@H]2CCN(C(=O)OC3C4CC5CC3CC(C(=O)NC3CCCCC3)(C5)C4)C2)nc1 (single isomer, unassigned) [Example 117 Isomer 2]",63.1

# Source: US8828985B2, “Carbamate and urea inhibitors of 11-beta-hydroxysteroid dehydrogenase 1” (Vitae Pharmaceuticals, Inc., priority 2008, dated 2014)
